Results from US10300226B2, “Rescue inhaler” (priority 2015, dated 2019).
Values joined by “and” are separate entries in the source; they are usually repeats but may differ in a detail not shown here. Equal entries are not always repeated.

Columns and labels:
[1] = cited from earlier work; for density: 25 degrees Celsius (dry air: no temperature given); for gas density: standard temperature and atmospheric pressure, gram molecular weight/22.4
[2] = density of reference gases and prior-art heliox; format: physicochemical

| density of oxygen ([2]; 24 degree Celsius and 742 torr, d=molar mass x p/RT) [g/L] | density of oxygen (D=P/RT) ([2]; T 273K, P 130000) [g/L] | Structure (SMILES) | density [1] [kg/m^3] | gas density [1] |
| --- | --- | --- | --- | --- |
|  |  | [He] [Helium] | 0.1787 | 0.1785 g/L and 0.178 g/L |
|  |  | N#N [Example N2, nitrogen] | 1.2506 | 1.25 g/L |
| 1.28 | 1.79 | O=O [oxygen] | 1.429 | 1.428 g/L |
